In assay [1] the test system is S. epidermidis GISE strain. Put plainly: Rat subcutaneous Dacron graft infection model, GISE strain. In kind it is in vivo. The settings on record: for Bacterial concentration, GISE: 2×10^7 bacteria, explanted day 7; for Bacterial concentration, GISE / Bacterial load on graft, GISE: mean ± SD; for Bacterial load on graft, GISE: Table 3A S. epidermidis. Here is the method: (§1) Rats (Wistar adult males (300-350 g), n=15/experimental group) were anaesthetized, hair on their back shaved and the skin cleansed with 10% povidone-iodine solution. A subcutaneous pocket was made on the side of the median line by a 1.5 cm incision. Aseptically, 1 cm^2 sterile collagen-sealed Dacron graft (Albograft™, Sorin Biomedica Cardio, S.p.A., Saluggi VC, Italy) was implanted into the pocket. […] Pockets were closed by skin clips and 1 ml sterile saline solution with or without 2×10^7 bacteria was inoculated onto the graft surface using a tuberculin syringe to create a subcutaneous fluid-filled pocket. Some of the animals that had grafts soaked only with RIP or saline were injected intraperitoneally with antibiotics (cefazolin 30 mg/kg, imipenem 30 mg/kg, teicoplanin 10 mg/kg, levofloxacin 10 mg/kg). Grafts were explanted 7 days following implantation.
(§2) The explanted grafts were placed in sterile tubes, washed in sterile saline solution, placed in tubes containing 10 ml of phosphate-buffered saline solution and sonicated for 5 min to remove the adherent bacteria from the grafts. Quantitation of viable bacteria was performed by culturing serial 10-fold dilutions (0.1 ml) of the bacterial suspension on blood agar plates. All plates were incubated at 37° C. for 48 hr and evaluated for the presence of the strain. Bacteria were quantitated by counting the number of colony forming unites (CFU) per plate. To determine if bacteria were efficiently removed from the graft, washed and sonicated grafts were observed under a Nikon Eclipse E 600 optical microscope (Nikon Y-THS, Japan).
(§3) Quantitative culture results of the in vivo experiments were presented as mean+SD of the mean. Comparisons of the results were performed by the analysis of variance (ANOVA) on the log-transformed data. Statistical analysis was performed for in vitro adhesion assays using Student's t-Test by Microsoft Excel (Microsoft, Wash.). Significance was accepted when the P value was <0.05.
(§4) To test if RIP can prevent graft-associated infections, Dacron grafts were coated with or without RIP, and with or without various types of antibiotics (for local prophylaxis experiments). Coated grafts were implanted in rats, bacteria injected into the implants, implants removed after a week, and bacterial load determined. Alternatively, Dacron grafts were first coated with RIP, bacteria injected, and antibiotics were administered by the intraperitoneal route (for parenteral prophylaxis experiments). As a negative control, grafts were implanted without local or parenteral RIP/antibiotics prophylaxis and no bacteria were injected. As a positive control, grafts were implanted, bacteria were injected, but no RIP/antibiotics prophylaxis was given.
(§5) Animals (15/group) received a Dacron-graft implanted in a subcutaneous pocket. Graft was subsequently infected with either S. epidermidis (tested on MSSE, MRSE and GISE) or with S. aureus (tested on MSSA, MRSA and GISA). […]

Assay [2] deals with S. epidermidis MSSE strain. The assay is described as follows: Rat subcutaneous Dacron graft infection model, MSSE strain. The format is in vivo. Particulars: for Bacterial concentration, MSSE: 2×10^7 bacteria, explanted day 7; for Bacterial concentration, MSSE / Bacterial load on graft, MSSE: mean ± SD; for Bacterial load on graft, MSSE: Table 3A S. epidermidis. Here is the method:
as §1, §2, §3, §4, §5

The test system of assay [3] is S. aureus MRSA. The assay is described as follows: Rat subcutaneous Dacron graft infection model, MRSA strain. The format is in vivo. The settings on record: Table 3B S. aureus, mean ± SD. Here is the method: as §1, with “implantation. Estimated RIP that adhered to graft was 10-26 μg.” for “implantation.”
as §2
Animals (15/group) received a Dacron-graft implanted in a subcutaneous pocket. Graft was subsequently infected with either S. epidermidis (tested on MSSE, MRSE and GISE) or with S. aureus (tested on MSSA, MRSA and GISA). The Dacron-graft prior to implantation was soaked in saline with or without 20 mg/l of RIP and some animals received […] of RIP i.p. as a prophylaxis treatment.

Assay [4] concerns TRAP. The settings on record: 1 hr. As for the experimental part:
S. aureus (right panel) and S. epidermidis (left panel) were in vivo phosphorylated for 1 hr in the presence or absence of RIP. Total cell homogenate was separated by SDS PAGE and the gel was autoradiographed.
To test for TRAP phosphorylation in S. epidermidis, in vivo phosphorylation assays were carried out as described for S. aureus. Briefly, early exponential S. epidermidis were grown in the presence of phosphate-free buffer supplemented with radiolabeled orthophosphate with or without RIP (10 μg/10^7 cells). After a 1 hr incubation period, the cells were collected by centrifugation, treated with lysostaphin followed by the addition of sample buffer, and total cell homogenate was applied without boiling to 15% SDS PAGE and the gel autoradiographed. The same experiment was carried out on 6390B S. aureus cells as a positive control.

Assay [5] has as its system RNAIII. The settings on record: cited from earlier work.
The subject of assay [6] is S. aureus LS-1. Particulars: mice; cited from earlier work.
The subject of assay [7] is S. aureus 8325-4. Particulars: rabbits; cited from earlier work.
Where [8] appears, read: A. Local prophylaxis: graft soaked 20 min in RIP 10 mg/l and/or antibiotic (mupirocin 100, quinupristin-dalfopristin 50, levofloxacin 30, rifampin 5 mg/l), rats.
[9] abbreviates: B. Parenteral prophylaxis: antibiotic intraperitoneally (cefazolin 30, imipenem 30, teicoplanin 10, levofloxacin 10 mg/kg), RIP as 10 mg/l graft soak, rats.
The mark [10] stands for this setting: RIP local (graft soaked in 20 mg/l RIP).
[11] abbreviates: RIP parenteral (10 mg/l RIP i.p.).
Where [12] appears, read: peptide-soaked/coated Dacron graft (RIP 10 mg/l), no antibiotic, rats, day 7.

The source of these data is patent US8067015B2, “Methods and compositions for the treatment and prevention of Staphylococcus and other bacterial infections” (priority 1997, dated 2011).

Read-outs that look alike come from different tables or passages of the source. Where no end group is shown, it is not given here.

As to YSPWTNF(—NH2) (YSPWTNF-NH2) [RIP], the “Bacterial concentration, GISE” value is on record as 6.2 ± 2.4 ×10^4 CFU/ml in assay [1] (setting [8]) and 6.2 ± 2 ×10^4 CFU/ml in assay [1] (setting [9]). Moreover, the “Bacterial load on graft, GISE” value is 0.46 ± 0.13 ×10^4 CFU/ml in assay [1] (setting [10]), 0.00 ± 0 ×10^4 CFU/ml in assay [1] (RIP local + RIP parenteral) and 0.31 ± 0.6 ×10^4 CFU/ml in assay [1] (setting [11]). For the same substance, the “Quantitative culture results of explanted graft, GISE strain” value in assay [1] (setting [12]) was 6.2×10^4±2.0×10^4 CFU/ml. In addition, the “RIP graft treatment inhibiting bacteria better than parenteral antibiotics prophylaxis” value in assay [1] (rats inoculated with GISE) was 10 to 100 fold. For the same substance, the “Bacterial concentration, MSSE” value in assay [2] (setting [8]) and in assay [2] (setting [9]) was 0.91 ± 0.23 ×10^4 CFU/ml in each case. Further, the “Bacterial load on graft, MSSE” value was 0.08 ± 0.024 ×10^4 CFU/ml in assay [2] (setting [10]), 0.00 ± 0 ×10^4 CFU/ml in assay [2] (RIP local + RIP parenteral) and 0.067 ± 0.019 ×10^4 CFU/ml in assay [2] (setting [11]). In addition, the “Quantitative culture results of explanted graft, MSSE strain” value in assay [2] (setting [12]) is recorded as 9.1×10^3±2.3×10^3 CFU/ml. Moreover, the “Bacterial load on graft, MRSE” value was 0.62 ± 0.21 ×10^4 CFU/ml in assay [3] (setting [10]), 0.00 ± 0 ×10^4 CFU/ml in assay [3] (RIP local + RIP parenteral) and 0.29 ± 0.088 ×10^4 CFU/ml in assay [3] (setting [11]). Further, the TRAP phosphorylation result is “can be inhibited” in assay [4] (RIP 10 μg/10^7 cells, S. epidermidis) and “inhibits TRAP phosphorylation” in assay [4] (in presence or absence of RIP, S. aureus). In addition, the “Inhibiting RNAIII in vitro” value in assay [5] is “extremely effective”. In addition, the “Suppressing S. aureus infection: septic arthritis” value in assay [6] is reported as “extremely effective”. The “Suppressing S. aureus infection: keratitis” value in assay [7] is “extremely effective”.
